Laboratory results: patent US9532970B2, “Compositions for anti-inflammatory, antioxidant effects and improved respiratory function by specific histone deacetylase inhibition” (priority 2014, dated 2017)
Read-outs that look alike come from different tables or passages of the source.

Assays:
HDAC-3 = HDAC-3 (Homo sapiens, UniProt O15379); assay: biochemical
Sequence of HDAC-3 (O15379 whole entry, species assumed): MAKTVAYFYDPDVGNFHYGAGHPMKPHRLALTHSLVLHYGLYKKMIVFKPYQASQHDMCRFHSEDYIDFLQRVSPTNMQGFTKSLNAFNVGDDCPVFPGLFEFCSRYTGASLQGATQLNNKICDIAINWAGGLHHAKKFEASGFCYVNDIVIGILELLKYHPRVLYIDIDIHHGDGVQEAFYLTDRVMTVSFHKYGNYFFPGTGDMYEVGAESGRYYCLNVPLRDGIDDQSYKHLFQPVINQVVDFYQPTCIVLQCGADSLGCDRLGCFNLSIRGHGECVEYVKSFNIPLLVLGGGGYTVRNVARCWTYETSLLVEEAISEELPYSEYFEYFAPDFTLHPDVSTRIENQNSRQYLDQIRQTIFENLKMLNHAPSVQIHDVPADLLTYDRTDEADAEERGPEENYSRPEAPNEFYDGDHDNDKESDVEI
Sequence of HDAC-3 (Q9Y618 395-489 partner limits assumed, species assumed): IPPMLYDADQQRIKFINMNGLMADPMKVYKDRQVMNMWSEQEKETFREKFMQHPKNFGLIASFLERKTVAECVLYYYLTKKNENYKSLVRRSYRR

`C[S@@+]([O-])CCCCN=C=S` [LSF, (R)-1-Isothiocyanato-4-(methylsulfinyl)butane] showed an NES (Horse PBMC; MSigDB gene set MCLACHLAN DENTAL CARIES UP) of −5.67, an NES (Horse PBMC; MSigDB gene set MEISSNER BRAIN HCP WITH H3K4ME3 AND H3K27ME3) of −5.6 and an NES (Horse PBMC; MSigDB gene set MILI PSEUDOPODIA HAPTOTAXIS UP) of 4.81. For the same compound, the NES (Horse PBMC; MSigDB gene set MODULE 45) was −5.9, the NES (Horse PBMC; MSigDB gene set MODULE 46) was −6.22 and the NES (Horse PBMC; MSigDB gene set MODULE 75) was −5.9. For the same compound, the NES (Horse PBMC; MSigDB gene set MODULE 84) was −7.87, the NES (Horse PBMC; MSigDB gene set MRNA METABOLIC PROCESS) was 4.19 and the NES (Horse PBMC; MSigDB gene set REACTOME GENERIC TRANSCRIPTION PATHWAY) was 4.19. The NES (Horse PBMC; MSigDB gene set RNA PROCESSING) was 4.02, the NES (Horse PBMC; MSigDB gene set SHEN SMARCA2 TARGETS UP) was 5.39 and the NES (Horse PBMC; MSigDB gene set V$NFMUE1 Q6) was 3.98. It also gave an NES (Horse PBMC; MSigDB gene set WALLACE PROSTATE CANCER RACE UP) of −5.66, an NES (Horse PBMC; Reactome gene set ACTIVATION OF KAINATE RECEPTORS UPON GLUTAMATE BINDING) of −2.56 and an NES (Horse PBMC; Reactome gene set ANTIGEN PROCESSING UBIQUITINATION PROTEASOME DEGRADATION) of 2.7. The NES (Horse PBMC; Reactome gene set ASSOCIATION OF TRIC CCT WITH TARGET PROTEINS DURING BIOSYNTHESIS) was 2.62, the NES (Horse PBMC; Reactome gene set CLASS A1 RHODOPSIN LIKE RECEPTORS) was −2.68 and the NES (Horse PBMC; Reactome gene set CLEAVAGE OF GROWING TRANSCRIPT IN THE TERMINATION REGION) was 3.33. For the same compound, the NES (Horse PBMC; Reactome gene set CYTOKINE SIGNALLING IN IMMUNE SYSTEM) was −2.84, the NES (Horse PBMC; Reactome gene set DOWNSTREAM SIGNALING EVENTS OF B CELL RECEPTOR BCR) was 3.12 and the NES (Horse PBMC; Reactome gene set G ALPHA1213 SIGNALLING EVENTS) was −2.54. It also gave an NES (Horse PBMC; Reactome gene set G ALPHA I SIGNALLING EVENTS) of −2.41, an NES (Horse PBMC; Reactome gene set G ALPHA SIGNALLING EVENTS) of −2.82 and an NES (Horse PBMC; Reactome gene set GABA RECEPTOR ACTIVATION) of −2.39. The NES (Horse PBMC; Reactome gene set GENERIC TRANSCRIPTION PATHWAY) was 4.23, the NES (Horse PBMC; Reactome gene set GPCR DOWNSTREAM SIGNALING) was −3.63 and the NES (Horse PBMC; Reactome gene set GPCR LIGAND BINDING) was −2.67. It also gave an NES (Horse PBMC; Reactome gene set HIV LIFE CYCLE) of 2.41, an NES (Horse PBMC; Reactome gene set IMMUNOREGULATORY INTERACTIONS BETWEEN A LYMPHOID AND A NON LYMPHOID CELL) of −3.37 and an NES (Horse PBMC; Reactome gene set INTERFERON ALPHA BETA SIGNALING) of −4. It also gave an NES (Horse PBMC; Reactome gene set INTERFERON GAMMA SIGNALING) of −3.9, an NES (Horse PBMC; Reactome gene set INTERFERON SIGNALING) of −3.18 and an NES (Horse PBMC; Reactome gene set LATE PHASE OF HIV LIFE CYCLE) of 2.44. The NES (Horse PBMC; Reactome gene set MHC CLASS II ANTIGEN PRESENTATION) was −2.47, the NES (Horse PBMC; Reactome gene set MRNA 3 END PROCESSING) was 3.5 and the NES (Horse PBMC; Reactome gene set MRNA PROCESSING) was 3.68. For the same compound, the NES (Horse PBMC; Reactome gene set MRNA SPLICING) was 3.09, the NES (Horse PBMC; Reactome gene set OPIOID SIGNALLING) was −2.55 and the NES (Horse PBMC; Reactome gene set PEPTIDE CHAIN ELONGATION) was −2.43. For the same compound, the NES (Horse PBMC; Reactome gene set PI3K EVENTS IN ERBB2 SIGNALING) was 2.49, the NES (Horse PBMC; Reactome gene set PI3K EVENTS IN ERBB4 SIGNALING) was 2.52 and the NES (Horse PBMC; Reactome gene set PIP3 ACTIVATES AKT SIGNALING) was 2.48. For the same compound, the NES (Horse PBMC; Reactome gene set PROCESSING OF CAPPED INTRON CONTAINING PRE MRNA) was 3.61, the NES (Horse PBMC; Reactome gene set RECRUITMENT OF MITOTIC CENTROSOME PROTEINS AND COMPLEXES) was 2.55 and the NES (Horse PBMC; Reactome gene set REGULATION OF MRNA STABILITY BY PROTEINS THAT BIND AU RICH ELEMENTS) was 2.6. For the same compound, the NES (Horse PBMC; Reactome gene set REGULATION OF ORNITHINE DECARBOXYLASE ODC) was 2.45, the NES (Horse PBMC; Reactome gene set RESPIRATORY ELECTRON TRANSPORT ATP SYNTHESIS BY CHEMIOSMOTIC COUPLING AND HEAT PRODUCTION BY UNCOULPLING PROTEINS) was −2.69 and the NES (Horse PBMC; Reactome gene set RNA POL II TRANSCRIPTION) was 3.32. The NES (Horse PBMC; Reactome gene set SIGNALING BY GPCR) was −3.35, the NES (Horse PBMC; Reactome gene set SIGNALING BY RHO GTPASES) was −2.87 and the NES (Horse PBMC; Reactome gene set TCA CYCLE AND RESPIRATORY ELECTRON TRANSPORT) was −2.8. The NES (Horse PBMC; Reactome gene set TRANSCRIPTION) was 3.25, the NES (Horse PBMC; Reactome gene set TRANSPORT OF MATURE TRANSCRIPT TO CYTOPLASM) was 3.02 and the IC50 (HDAC-3) was 20.5 mM.
